{"source": "paper PMC8113538", "about": "“Acute toxicity analysis of an inhibitor of BCL2, Disarib, in rats” (Scientific Reports, 2021)", "key": {"[1]": {"tested_on": "BCL-xL", "set-up": "method as in PMID 28223017, PMID 27693384", "conditions": "cited from earlier work"}, "[2]": {"assay": "Stability of Disarib in PBS (HPLC)", "type": "physicochemical", "conditions": "37 °C; 0, 2, 4, 6 h; HPLC peak", "experimental": "The stability of Disarib (100 μM) was investigated in phosphate-buffered saline (PBS) and in plasma. The blood was collected from rats by heart puncture, and plasma was separated for the study. After the addition of Disarib into plasma or PBS, the mixture was incubated at 37 °C in water bath[25],[26]. The samples were then collected at different time points, 0, 2, 4, and 6 h, mixed manually with acetonitrile (1:1), and analyzed on HPLC[27],[40]. The values plotted represent the mean of three independent experiments. The samples were analyzed by HPLC using the Shimadzu HPLC system. LC was carried out on the C18 analytical column. The mobile phase was the gradient of acetonitrile and water. Disarib specific peaks were detected at 232 nm. The injection volume was 20 μl, and the flow rate was 1.2 ml/min. The standard curves were constructed by plotting the peak area vs. concentration of Disarib[40]."}, "[3]": {"tested_on": "interaction of BCL2 with BAX", "set-up": "method as in PMID 28223017", "conditions": "cited from earlier work"}, "[4]": {"tested_on": "Wistar rats", "assay": "Histology (H&E) of organs", "type": "in vivo, Wistar rats (Rattus norvegicus)", "conditions": "2000 mg/kg oral, day 14, H&E", "experimental": "At the end of the experimental period (14 days), two animals from each group were sacrificed following CO2 asphyxiation. Liver, kidney, intestine, spleen, lungs, and heart were collected, fixed in 4% paraformaldehyde (PFA) and processed for histology, as described before[44]–[46]. For histological studies, tissues from rats treated with the highest dose (2000 mg/kg) and the vehicle control group were selected. Paraffin blocks were prepared and sections were taken using a rotary microtome (Leica Biosystems, Buffalo Grove, IL, USA) with a thickness of 5 µm. Following deparaffination, sections were stained with hematoxylin and eosin (H&E), mounted in DPX, and imaged under a bright-field microscope (Carl Zeiss AxioVision, Oberkochen, Germany)."}, "[5]": {"tested_on": "BCL2", "set-up": "method as in PMID 28223017, PMID 27693384", "conditions": "cited from earlier work"}, "[6]": {"tested_on": "mice tumor models", "conditions": "cited from earlier work"}, "[7]": {"assay": "Pharmacokinetics in serum of Wistar rats after oral administration (HPLC)", "type": "in vivo, Wistar rats (Rattus norvegicus)", "conditions": "50 mg/kg b. wt oral", "experimental": "Wistar rats (Rattus norvegicus) were administered with 50 mg/kg Disarib orally, and blood was collected by heart-puncture method following sacrifice at different time points (15 min, 30 min, 1, 2, 4, 6, 8, 10, 12, 24, 48 and 72 h) following treatment. Blood was allowed to clot, and serum was separated by centrifugation (900×g, 10 min) and deproteinized by adding acetonitrile. Samples for standard calibration curve were prepared by spiking 100 μM Disarib in rat plasma. The supernatant was loaded onto a C18 column, and HPLC analysis was performed in acetonitrile:water gradient, as described before[23],[38] (Shimadzu, Kyoto, Japan). Disarib specific peak were acquired at 232 nm wavelength. At least two mice were sacrificed at each time point for the study. Pharmacokinetic parameters were analysed by using LabSolutions software (Shimadzu, Japan), and the values obtained were plotted with GraphPad Prism (ver5.1) software, where C is predicted concentration and t is time. Data was analysed using nonlinear regression analysis. Maximum drug plasma concentration (Cmax) and Time to reach Cmax was determind by area under the curve versus time curve. Clearance (Cl) and steady state volume of distribution (Vss) were calculated respectively by rate of drug elimination and amount of drug in the body at equilibrium condition vs steady state drug concentration in plasma.\nThe samples were analyzed by HPLC using the Shimadzu HPLC system. LC was carried out on the C18 analytical column. The mobile phase was the gradient of acetonitrile and water. Disarib specific peaks were detected at 232 nm. The injection volume was 20 μl, and the flow rate was 1.2 ml/min. The standard curves were constructed by plotting the peak area vs. concentration of Disarib[40]."}, "[8]": {"tested_on": "Wistar rats", "assay": "Single-dose acute toxicity / LD50 determination with general observation", "type": "in vivo, Wistar rats (Rattus norvegicus)", "experimental": "All the studies were designed according to the guidelines of the Central Drug Standard Control Organization (Schedule-Y-CDSCO, Appendix III), India (https://cdsco.gov.in/opencms/opencms/en/Drugs/New-Drugs/). Single-dose toxicity analysis was performed in male Wistar rats. Animals were segregated in groups of five, and Disarib was administered using oral gavage (100, 1000, 2000 mg/kg b. wt.). Carboxymethyl cellulose, used for preparing Disarib, served as vehicle control to feed control animals. Mortality, general appearance, and behavior were initially observed for 24 h. Animals were further observed for 14 days and were further subjected to toxicity analysis.\nThe median lethal dose was determined in male Wistar rats. […] Disarib was orally administered after making solution using carboxymethyl cellulose (100, 1000, 2000 mg/kg), and lethality was evaluated over 14 days after treatment. Carboxymethyl cellulose treated animals served as vehicle control.\nGeneral cage-side examination of the treated and control animals were performed every day during the experiment. General behavior, appearance, skin, hairs, secretion (lachrymation), and death were evaluated daily, according to the guidelines of CDSCO, India[41],[42].\nBody weight was recorded on every 4th day from the date of administration of Disarib up to […]. Food and water consumption were monitored every day from the date of administration of the compound. During the present study, on every alternate days ~ 250 g food pellet and ~ 500 ml water were given to each cage (control and treatment groups)."}}, "data": [{"smiles": "O=C1Nc2ccccc2/C1=C/c1c(-c2ccc(Br)cc2)nc2sc(Cc3ccc(Cl)cc3)nn12", "note": "[Disarib]", "values": [{"measurement": "interaction with BCL-xL", "setting": "[1]", "value": "not with other antiapoptotic proteins such as BCL-xL"}, {"measurement": "stability in PBS", "setting": "[2]", "value": "stable in PBS up to 6 h"}, {"measurement": "disruption of BCL2-BAX interaction", "setting": "[3]", "value": "did not disrupt the interaction of BCL2 with BAX"}, {"measurement": "intestine histology", "setting": "[4]", "value": "Normal structure and organization"}, {"measurement": "kidney histology", "setting": "[4]", "value": "No glomerular dilation and tubular necrosis"}, {"measurement": "liver histology", "setting": "[4]", "value": "no cellular change in lobular liver texture, hepatocytes and sinusoidal spaces"}, {"measurement": "lungs and heart histology", "setting": "[4]", "value": "did not show difference in the structure of alveoli and cardiac muscles"}, {"measurement": "spleen histology", "setting": "[4]", "value": "no difference in spleen architecture"}, {"measurement": "interaction with BCL2", "setting": "[5]", "value": "specifically interacted with BCL2"}, {"measurement": "tumor regression", "setting": "[6]; mice, intraperitoneal route", "value": "efficient tumor regression comparable to that of ABT199"}, {"measurement": "tumor progression", "setting": "[6]; oral administration, multiple mice tumor models", "value": "significant reduction in tumor progression"}, {"measurement": "maximum concentration (Cmax) in serum", "setting": "[7]", "value": "~ 18 μg/ml"}, {"measurement": "steady state volume of distribution (Vss)", "setting": "[7]; estimated", "value": 4.16, "unit": "L/kg"}, {"measurement": "clearance rate", "setting": "[7]; estimated from rate of drug elimination", "value": 0.44, "unit": "mL/min/kg"}, {"measurement": "t1/2", "setting": "[7]; serum", "value": 36, "unit": "h"}, {"measurement": "time to Cmax (Tmax)", "setting": "[7]; serum", "value": 24, "unit": "h"}, {"measurement": "food and water consumption", "setting": "[8]; Wistar rats, 100, 1000, 2000 mg/kg oral, assessed daily", "value": "no difference in eating and drinking habits"}, {"measurement": "cage-side signs (behavior, appearance, lachrymation, locomotion, hair, skin)", "setting": "[8]; Wistar rats, 100, 1000, 2000 mg/kg oral, daily examination", "value": "comparable to the vehicle control group"}, {"measurement": "body weight", "setting": "[8]; Wistar rats, 100, 1000, 2000 mg/kg oral, weighed every 4 days up to 32 days", "value": "gradual increase in body weight of the animals, both in control and treated groups"}, {"measurement": "mortality and visible signs of toxicity", "setting": "[8]; Wistar rats, highest dose 2000 mg/kg b. wt. oral", "value": "did not cause mortality or any visible sign of toxicity"}, {"measurement": "Maximum Tolerated Dose (MTD)", "setting": "[8]; Wistar rats, single oral dose, estimated", "value": "> 2000", "unit": "mg/kg"}, {"measurement": "LD50", "setting": "[8]; male Wistar rats, single oral dose, 14 days observation", "value": "> 2000", "unit": "mg/kg b. wt"}]}]}
